Experimental data: US10993987B2 (Sublimity Therapeutics Limited, priority 2014, dated 2021)

Key:
[1] = Example 11 emulsion stability: time point when crystallisation was observed (polarised light microscopy); type: physicochemical; settings: for emulsion stability compared to sodium dodecyl sulfate (SDS): as aqueous phase surfactant of the cyclosporin emulsion
Description: Emulsions were prepared by mixing an oil phase and an aqueous phase, as described in Example 1. The oil phase was consistent for all emulsions of this example. The emulsion aqueous phase mixed was one of three aqueous mixtures. The three aqueous phases differed in the amount of surfactant, 0.7%, 1.3% and 2.5%, and water.
The emulsion was prepared by mixing the oil phase and aqueous phase in a oil:aqueous phase ratio of 1:5. The experiments were performed in triplicate, N=3. In order to replicate current manufacturing conditions as much as possible the following procedure was carried out: • Identical size beakers were used to ensure minimal variation between experiments • Identical submersible magnetic stirrers were placed in each beaker to keep the emulsions under constant magnetic stirring, and the same rpm stir rate used for each • Hot plates were used to maintain a constant emulsion temperature of 65° C. • Emulsions were kept covered with aluminium foil during the process
Sampling of the emulsion was carried out at various time points using disposable pipettes to avoid cross contamination.
(§1) Samples were withdrawn from each emulsion at half hour time intervals starting at time zero (t0) using a disposable pipette. Drops of emulsion were placed on a glass slide, pre heated on a hot plate. The sample was covered with a cover slip and a small amount of pressure applied to form a thin film of emulsion. The samples were allowed to solidify to room temperature before being viewed at ×50 and ×100 objective lens under polarised light to check for the presence of crystals. Results were recorded as optical photomicrographs with three images taken of each emulsion at each time point. Images documenting crystal growth and size with respect to time within the sample emulsion as well as background oil droplet size were collected.

[2] = Example 11 emulsion droplet size by photomicrographs; type: physicochemical
Excerpt: as §1
Photomicrographs of the emulsions enabled the investigation of the droplet size as well as crystal formation. Smaller, more uniform droplet size was preferred.

| emulsion stability among tested surfactants ([1]; each concentration (0.7%, 1.3%, 2.5% in aqueous phase)) | SMILES | emulsion stability compared to sodium dodecyl sulfate (SDS) [1] | emulsion droplet characteristics (smaller, more uniform droplet size preferred) [2] |
| --- | --- | --- | --- |
| best stability for each concentration | CCCCCCCCCCCCCCCCCCOS(=O)(=O)[O-].[Na+] [Sodium n-Octadecyl Sulfate] | comparable to that of sodium dodecyl sulfate | preferred droplet characteristics were observed |
|  | CCCCCCCCOS(=O)(=O)[O-].[Na+] [Sodium n-Octyl Sulfate] | comparable to that of sodium dodecyl sulfate | preferred droplet characteristics were observed |
